Measured values as given in PubChem BioAssay (NCI).
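Each compound was tested at five concentrations against cells in 96-well plates for 48 hours. GI50 = concentration required for 50% inhibition of growth. TGI: total growth inhibition.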

Key:
Assay in all cases: NCI tumour cell line growth inhibition, 48 h
[1] = tested on: 786-0 renal
[2] = tested on: A498 renal
[3] = tested on: A549 NSCLC
[4] = tested on: ACHN renal
[5] = tested on: BT-549 breast
[6] = tested on: CAKI-1 renal
[7] = tested on: CCRF-CEM leukemia
[8] = tested on: COLO 205 colon
[9] = tested on: DU-145 prostate
[10] = tested on: EKVX NSCLC
[11] = tested on: HCC-2998 colon
[12] = tested on: HCT-116 colon
[13] = tested on: HCT-15 colon
[14] = tested on: HL-60(TB) leukemia
[15] = tested on: HOP-62 NSCLC
[16] = tested on: HOP-92 NSCLC
[17] = tested on: HS 578T breast
[18] = tested on: HT29 colon
[19] = tested on: IGROV1 ovarian
[20] = tested on: K-562 leukemia
[21] = tested on: KM12 colon
[22] = tested on: LOX IMVI melanoma
[23] = tested on: MALME-3M melanoma
[24] = tested on: MCF7 breast
[25] = tested on: MDA-MB-231 breast
[26] = tested on: MDA-MB-435
[27] = tested on: MOLT-4 leukemia
[28] = tested on: NCI-H226 lung
[29] = tested on: NCI-H23 lung
[30] = tested on: NCI-H460 lung
[31] = tested on: NCI-H522 lung
[32] = tested on: NCI/ADR-RES ovarian
[33] = tested on: OVCAR-3 ovarian
[34] = tested on: OVCAR-4 ovarian
[35] = tested on: OVCAR-5 ovarian
[36] = tested on: OVCAR-8 ovarian
[37] = tested on: PC-3 prostate
[38] = tested on: RPMI-8226 leukemia
[39] = tested on: RXF 393 renal
[40] = tested on: SF-268 CNS
[41] = tested on: SF-295 CNS
[42] = tested on: SF-539 CNS
[43] = tested on: SK-MEL-2 melanoma
[44] = tested on: SK-MEL-28 melanoma
[45] = tested on: SK-MEL-5 melanoma
[46] = tested on: SK-OV-3 ovarian
[47] = tested on: SN12C renal
[48] = tested on: SNB-19 CNS
[49] = tested on: SNB-75 CNS
[50] = tested on: SR leukemia
[51] = tested on: SW-620 colon
[52] = tested on: T-47D breast
[53] = tested on: TK-10 renal
[54] = tested on: U251 CNS
[55] = tested on: UACC-62 melanoma
[56] = tested on: UO-31 renal

Compound: CCOc1ccccc1C(=O)/C=C/c1cc2ccccc2[nH]c1=O
- GI50 [1]: 39.9 nM
- TGI [1]: 1330 nM
- GI50 [2]: 14.7 nM
- TGI [2]: 81.3 nM
- GI50 [3]: 74.1 nM
- TGI [3]: 12400 nM
- GI50 [4]: 60.3 nM
- TGI [4]: 1730 nM
- GI50 [5]: 72 nM
- TGI [5]: 1410 nM
- GI50 [6]: 25.8 nM
- TGI [6]: 1490 nM
- GI50 [7]: 29 nM
- TGI [7]: > 100000 nM
- GI50 [8]: 37.1 nM
- TGI [8]: 643 nM
- GI50 [9]: 38 nM
- TGI [9]: 905 nM
- GI50 [10]: 172 nM
- TGI [10]: 1990 nM
- GI50 [11]: 126 nM
- TGI [11]: 654 nM
- GI50 [12]: < 22.9 nM
- TGI [12]: 1170 nM
- GI50 [13]: 33.9 nM
- TGI [13]: 1220 nM
- GI50 [14]: 13 nM
- TGI [14]: 59 nM
- GI50 [15]: 67.8 nM
- TGI [15]: 3470 nM
- GI50 [16]: 77.8 nM
- TGI [16]: 1410 nM
- GI50 [17]: 22.2 nM
- TGI [17]: 93.3 nM
- GI50 [18]: 23.2 nM
- TGI [18]: 2060 nM
- GI50 [19]: 56.4 nM
- TGI [19]: 1860 nM
- GI50 [20]: < 10 nM
- TGI [20]: > 100000 nM
- GI50 [21]: 35.5 nM
- TGI [21]: 570 nM
- GI50 [22]: 44.3 nM
- TGI [22]: 1060 nM
- GI50 [23]: 23.8 nM
- TGI [23]: 1880 nM
- GI50 [24]: 35.6 nM
- TGI [24]: 1410 nM
- GI50 [25]: 77.4 nM
- TGI [25]: 2010 nM
- GI50 [26]: < 10 nM
- TGI [26]: 13.9 nM
- GI50 [27]: 38.5 nM
- TGI [27]: 4430 nM
- GI50 [28]: 202 nM
- TGI [28]: 6490 nM
- GI50 [29]: 72.9 nM
- TGI [29]: 1770 nM
- GI50 [30]: 33.2 nM
- TGI [30]: 349 nM
- GI50 [31]: 30.8 nM
- TGI [31]: 1830 nM
- GI50 [32]: 23.4 nM
- TGI [32]: 14400 nM
- GI50 [33]: 24.5 nM
- TGI [33]: 108 nM
- GI50 [34]: 144 nM
- TGI [34]: 6240 nM
- GI50 [35]: 193 nM
- TGI [35]: 1440 nM
- GI50 [36]: 50.7 nM
- TGI [36]: 2080 nM
- GI50 [37]: 41.3 nM
- TGI [37]: 2760 nM
- GI50 [38]: 28.4 nM
- TGI [38]: 991 nM
- GI50 [39]: 32.2 nM
- TGI [39]: 340 nM
- GI50 [40]: 86 nM
- TGI [40]: 1850 nM
- GI50 [41]: 31.1 nM
- TGI [41]: 1280 nM
- GI50 [42]: 29.4 nM
- TGI [42]: 129 nM
- GI50 [43]: 65.7 nM
- TGI [43]: 3020 nM
- GI50 [44]: 324 nM
- TGI [44]: 2160 nM
- GI50 [45]: 43.1 nM
- TGI [45]: 1310 nM
- GI50 [46]: 106 nM
- TGI [46]: 15200 nM
- GI50 [47]: 96.1 nM
- TGI [47]: 1630 nM
- GI50 [48]: 45.9 nM
- TGI [48]: 1340 nM
- GI50 [49]: 20.9 nM
- TGI [49]: 76.6 nM
- GI50 [50]: < 10 nM
- TGI [50]: > 100000 nM
- GI50 [51]: 19.4 nM
- TGI [51]: 1160 nM
- GI50 [52]: 271 nM
- TGI [52]: 19600 nM
- GI50 [53]: 438 nM
- TGI [53]: 2930 nM
- GI50 [54]: 39.7 nM
- TGI [54]: 1330 nM
- GI50 [55]: 42.3 nM
- TGI [55]: 1930 nM
- GI50 [56]: 61.1 nM
- TGI [56]: 1590 nM
